We go through two compounds from US10913714B2, “Pyrrole sulfonyl derivative, preparation method and medical use thereof” (JIANGSU CAREPHAR PHARMACEUTICAL CO., LTD, priority 2015, dated 2021).

The assay deals with gastric acid secretion induced by histamine. Kind of assay: Gastric acid secretion induced by histamine in pylorus-ligated rats. The class given is in vivo. The conditions noted are these: SD rat; for Total acid content: 2 mg/kg by gavage 1 h before histamine, total acid of 3 h; for Acid inhibiting rate %: 2 mg/kg by gavage, compared with model control. From the text:
Test Case 3: Studies on the Effect of EXP 1, TAK-438 and EXP 14 on Gastric Acid Secretion Induced by Histamine Experimental Materials 1) Animals
SD rat, class SPF, male, 180-220 g; provided by Zhejiang Experimental Animal Center; production permit no.: SCXK (Z) 2014-0001.
Compound EXP 1, dissolved with a small amount of acetic acid (about 1.10N EXP 1), 0.9% sodium chloride solution to a clear liquid with needed concentration before use.
>Compound TAK-438, dissolved with 0.9% sodium chloride solution to a clear liquid with needed concentration before use.
Compound EXP 14, dissolved with a small amount of acetic acid (about 1.10N EXP 14), 0.9% sodium chloride solution to a clear liquid with needed concentration before use.
Fetching 60 SD rats of class SPF with a weight of 180-220 g; dividing the rats into 5 groups as per weights randomly, including Group EXP 1 (2 mg/kg), Group TAK-438 (2 mg/kg, as per free alkali), Group EXP 14 (2 mg/kg), Group negative control (normal saline of equal volume) and Group model control (normal saline of equal volume); 12 rats per group. Absolute diet for 24 h, water is allowed. After 24 h, administrating drugs to the tested compound groups A, B and C by gavage with a volume of 1 ml/100 g; each group is administered once; the negative control and model negative control groups are administrated by gavage with normal saline of equal volume. Narcotizing the rat with 300 mg/kg of chloral hydrate (1 ml/100 g) and fixing it onto the rat board; cutting to open the abdominal wall along the medioventral line from the mucronate cartilage with an incision of 2-3 cm; slightly pushing the left costal margin upward to expose the stomach in the incision. Ligaturing the pylorus thereunder (leave alone the adjacent blood vessels) and then suturing the abdominal incision. Giving histamine dihydrochloride (30 mg/10 m/kg) hypodermically to the rat 1 h after the tested compound or normal saline are administrated. Choking the rat to death with excessive CO2 3 h after the histamine is given; taking out the stomach and collecting the gastric contents for centrifugation at 3000 rpm/min; adjusting the PH value of the acid fluid to 7.0 with 0.1 mol/L of NaOH titration and then calculating the total acid content of the 3 h. Refer to Table 3 for results.

Where a name gives a salt, the structure may show the parent alone. Marks after values point to notes of the source that are not given here.

In the case of `CNCc1cc(-c2ccccc2F)n(S(=O)(=O)c2cccc(OCCCOC)c2)c1` [EXP 1, 1-(5-(2-fluorobenzene)-1-((3-(3-methoxypropoxy)phenyl)sulfonyl)-1H-pyrrole-3-yl)-N-methyl methylamine], the Total acid content is 0.49 ± 0.12** 10^−4 mol and the “Acid inhibiting rate %” value turned out to be 55.4%.

As for `CNCc1cc(-c2ccccc2F)n(S(=O)(=O)c2cccnc2)c1` [TAK-438, 5-(2-fluorophenyl)-N-methyl-1-(3-pyridylsulfonyl)-1H-pyrrole-3-methamine fumarate], the Total acid content is 0.52 ± 0.10** 10^−4 mol and the “Acid inhibiting rate %” value was found to be 52.3%.
